Test results as given in patent US6262023A, “WD-40 derived peptides and uses thereof” (The Board of Trustees of the Leland Stanford Junior …, priority 1995, dated 2001).

Tests used:
βPKC [1] = experiment: βPKC translocation (soluble vs particulate fraction) in Xenopus oocytes; format: cell-based; details: 50 μM peptide microinjected
Experimental: Insulin causes the translocation of βPKC, but not other PKC isozymes, from a cytosolic form to a membrane-associated form, as evidenced by the relative levels of PKC in the soluble vs. the particulate fraction of oocyte homogenate. To assess the effects of RACK1 WD-40-derived peptides on insulin-induced PKC translocation, 50 nl of a 20 mM NaCl solution containing the indicated peptides were microinjected into Xenopus oocytes. The oocytes were then homogenized, and the relative amount of PKC in the soluble and particulate fractions was assayed. The protocol followed was a modification of a method described by Smith, et al. (1992).
Batches of 50 oocytes were microinjected with either peptide rVI (SEQ ID NO:7; 50 μM; lanes 3, 4), peptide I (SEQ ID NO:1; 50 μM, lanes 7, 8) or injection solution (NaCl 20 mM, lanes 1,2 and 5,6). Homogenates from each batch were prepared 60 minutes after microinjection (lanes 1-4) or 60 minutes after addition of insulin (lanes 5-8). The homogenates were centrifuged at 10,000 g for 3 minutes, the upper layer (containing fat and yolk) was removed, and the remainder was frozen at -70° C. […] The amount of PKC in each fraction was determined by Western blot using anti-βPKC antibodies (1:1000 dilution; Seikagaku Kogyo, Tokyo, Japan). Bound primary antibodies were detected by chemiluminescence as described in Example 3, part C.

[2] = test system: PKC-mediated germinal vesicle breakdown (GVBD) in Xenopus oocytes; experiment: PKC-mediated Xenopus oocyte maturation (germinal vesicle breakdown, GVBD) after peptide microinjection; format: cell-based
Experimental: Exposure to insulin induces maturation in Xenopus oocytes via a PKC-dependent pathway (Smith, et al., 1992). The maturation response may be quantified by monitoring the appearance of a white spot in the animal hemisphere of the oocyte, indicating germinal vesicle breakdown (GVBD) and maturation. To assess the effects of RACK1 WD-40-derived peptides on insulin-induced PKC-mediated maturation, 50 nl of a 20 mM NaCl solution containing the indicated peptides [peptide I (SEQ ID NO:1; .circle-solid.), peptide rVI (SEQ ID NO:7; .box-solid.), or injection solution (.quadrature.)] […] One hour following the peptide injections, the oocytes were exposed to a solution containing insulin (8.25 μg/ml) for 2 minutes (t=0). 10-15 oocytes were used for each sample.
The data, representative of three independent experiments, are expressed as the percent of oocytes with GVBD following insulin exposure and are plotted as a function of time in FIG. 5.

δ and εPKC isozymes = experiment: PKC isozyme translocation and degradation in cardiac myocytes; format: cell-based, rat; details: peptide introduced into cardiac myocytes
Source text: This peptide-induced translocation was followed by degradation of δ and εPKC isozymes.

PKC = PKC autophosphorylation; format: biochemical, rat; details: 10 μM peptide; no PS, DG, calcium
Experimental: Rat brain PKC (~10 nM) was incubated with mild agitation in a final volume of 250 μl of overlay buffer, as in Example 1 either with anti-βPKC pseudosubstrate antibodies (1:10 dilution, Life Technologies, Gaithersburg, Md.) or with the indicated peptide (10 μM). Where indicated, PS (50 μg/ml), DG (0.8 μg/ml) and CaCl2 (1 mM) were also added. The amount of autophosphorylation was determined after 2 hours for the reaction with the anti-pseudosubstrate antibodies, or after 15 minutes for the other samples. 50 μl of a buffer comprised of 20 mM Tris-HCl (pH 7.5), 20 mM MgCl2, 20 μM ATP and 5 μci/ml [γ-^32 P]ATP. The mixture was incubated for 15 minutes at room temperature and the reaction was stopped by adding 60 μl sample buffer (see Example 9). The samples were then boiled for 10 minutes, loaded onto a 10% SDS-PAGE mini gel and electrophoresed. The gel was fixed with 50% methanol and 10% acetic acid for 1 hour, and the autophosphorylation of PKC was determined by autoradiography.

βPKC [3] = target: βPKC (Rattus norvegicus, UniProt P68403); experiment: PKC overlay of immobilized peptides (slot-blot); format: binding; parameters: All the solutions contained 5 nM rat brain PKC in peptide overlay buffer; from tissue; host or cells: rat brain; details: DG and calcium
Experimental: The binding of βPKC to peptide I (SEQ ID NO:1), peptide rVI (SEQ ID NO:7) and control peptide (SEQ ID NO:9) was assessed using a PKC overlay assay similar to that described in Example 3. Increasing amounts of peptides (0.5 μmole, 1.0 μmole, 5.0 μmole and 10.0 μmole) suspended in 20 mM NaCl were applied individually onto nitrocellulose using a slot-blot apparatus (Schleicher and Schuell, Keene, N.H.). The nitrocellulose membrane was washed three times, minutes per wash, in peptide overlay buffer and incubated for two hours in peptide overlay block buffer. The membrane was cut into sections and the sections were transferred to different PKC-containing solutions and incubated for 30 minutes at room temperature. All the solutions contained 5 nM rat brain PKC in peptide overlay buffer. Some solutions additionally contained PS, DG, and calcium. The membranes were then washed three times, 15 minutes per wash, in peptide overlay buffer and incubated in peptide overlay block buffer containing anti-βPKC monoclonal antibodies (1:1000 dilution; Seikagaku Kogyo, Tokyo, Japan). […]
Binding of PKC was determined using chemiluminescence as described in Example 3, part C. Quantitation of PKC binding was carried out using a "MICRO SCAN" 1000 gel analyzer (Galai Inc., Yokneam, Israel).

Chain of βPKC (Rattus norvegicus, UniProt P68403) (P68403 whole entry): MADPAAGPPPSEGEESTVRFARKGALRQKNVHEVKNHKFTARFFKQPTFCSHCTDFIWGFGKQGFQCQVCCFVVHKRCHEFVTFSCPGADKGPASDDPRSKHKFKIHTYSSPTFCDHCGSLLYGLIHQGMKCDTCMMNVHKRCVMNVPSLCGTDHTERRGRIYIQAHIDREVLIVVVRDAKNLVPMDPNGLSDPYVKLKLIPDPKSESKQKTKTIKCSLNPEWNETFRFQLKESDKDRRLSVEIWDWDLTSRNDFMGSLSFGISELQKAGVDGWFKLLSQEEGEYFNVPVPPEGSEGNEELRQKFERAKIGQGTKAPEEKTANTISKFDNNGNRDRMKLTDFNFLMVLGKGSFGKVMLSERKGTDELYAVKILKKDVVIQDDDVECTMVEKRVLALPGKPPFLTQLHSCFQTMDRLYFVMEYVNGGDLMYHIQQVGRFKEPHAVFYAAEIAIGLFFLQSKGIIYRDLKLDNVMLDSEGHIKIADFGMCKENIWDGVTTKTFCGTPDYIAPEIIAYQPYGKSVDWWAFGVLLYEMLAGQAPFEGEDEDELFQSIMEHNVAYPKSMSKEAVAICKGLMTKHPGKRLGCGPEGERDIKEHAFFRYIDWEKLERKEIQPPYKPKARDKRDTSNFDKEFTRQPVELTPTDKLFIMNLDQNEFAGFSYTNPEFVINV

peptide I: 15-residue peptide homologous to a sequence in the sixth WD-40 repeat of RACK1; PKC antagonist (KGDYEKILVALCGGN)
effect on insulin (hormone)-induced βPKC translocation (βPKC [1]; 60 minutes after addition of insulin): inhibited insulin-induced βPKC translocation
βPKC distribution / translocation in the absence of insulin treatment (βPKC [1]; homogenate 60 minutes after microinjection): did not affect βPKC distribution
plateau of % GVBD following insulin exposure ([2]; 50 nl of 50 μM peptide microinjected, insulin 8.25 μg/ml): 45-50 % GVBD
dose dependence of effect on GVBD ([2]; between 5 μm-500 μM): dose-dependent
fraction of oocytes exposed to insulin that reach maturation ([2]; peptide microinjected, insulin): 45-50%
effect on NE-induced translocation of PKC isozymes (δ and εPKC isozymes; norepinephrine 2 μM): inhibited
degradation of δ and εPKC isozymes (δ and εPKC isozymes): nor does it induce PKC degradation
translocation / distribution of δ and εPKC isozymes in the absence of hormone stimulation (δ and εPKC isozymes): does not affect PKC distribution
induction of PKC autophosphorylation in the absence of PKC activators (PKC): Neither peptide I nor control peptide induced PKC autophosphorylation
peptide amount at which activated PKC bound to immobilized peptide (as low as) (βPKC [3]; PKC with PS, 5 nM rat brain PKC, 0.5-10.0 μmole peptide on nitrocellulose): ≤ 5 µmol
binding of unactivated PKC to immobilized peptide (βPKC [3]; PKC without PS): did not bind
